{"source": "patent US11969419B2", "about": "“Method of treating cancer” (Exelixis, Inc., priority 2010, dated 2024)", "key": {"[1]": {"system": "castration-resistant prostate cancer (CRPC) with bone metastases", "test": "Adaptive phase 2 trial (NCT00940225), case studies of the first three CRPC patients with bone metastases, Compound 1 100 mg", "assay_type": "in vivo, human", "details": "for Bone scan (best response) / Pain (best response): preliminary best response", "description": "In 2000, local disease recurrence was treated with radiation therapy. […] CAB with leuprolide and bicalutanide was initiated. […] All patients provided informed consent before study screening."}, "[2]": {"details": "phase 1 clinical study; cited from earlier work"}, "tumor cells": {"system": "tumor cells", "details": "cited from earlier work"}, "xenograft tumor models": {"system": "xenograft tumor models", "details": "cited from earlier work"}, "[3]": {"system": "pancreatic neuroendocrine tumor model", "details": "murine pancreatic neuroendocrine tumor model; cited from earlier work"}, "endothelial cells": {"system": "endothelial cells", "details": "cited from earlier work"}, "[4]": {"details": "three metastatic CRPC patients, summary"}}}
{"smiles": "COc1cc2nccc(Oc3ccc(NC(=O)C4(C(=O)Nc5ccc(F)cc5)CC4)cc3)c2cc1OC", "note": "[Compound 1, N-(4-{[6,7-bis(methyloxy)quinolin-4-yl]oxy}phenyl)-N′-(4-fluorophenyl)cyclopropane-1,1-dicarboxamide]", "values": [{"measurement": "Bone scan: radiotracer uptake by bone metastases", "setting": "[1]; Patient 1, Week 6", "value": "dramatic decrease in radiotracer uptake"}, {"measurement": "CT scan response category", "setting": "[1]; Patient 1, Week 6", "value": "partial response (PR)"}, {"measurement": "CT scan: decrease in measurable target lesions", "setting": "[1]; Patient 1, Week 6", "value": 33, "unit": "%"}, {"measurement": "Bone lesions on bone scan", "setting": "[1]; Patient 1, Week 12, stable through Week 18", "value": "near complete resolution of bone lesions"}, {"measurement": "Adverse event leading to withdrawal", "setting": "[1]; Patient 1, Week 18", "value": "Grade 3 diarrhea"}, {"measurement": "Bone pain", "setting": "[1]; Patient 1, four weeks after start", "value": "significant reduction in bone pain"}, {"measurement": "Bone scan (best response)", "setting": "[1]; Patient 1", "value": "Complete resolution"}, {"measurement": "Pain (best response)", "setting": "[1]; Patient 1", "value": "Improvement"}, {"measurement": "Bone pain", "setting": "[1]; Patient 2, Week 4", "value": "reduction in bone pain"}, {"measurement": "Bone scan: radiotracer uptake by bone lesions", "setting": "[1]; Patient 2, Week 6", "value": "slight flair in radiotracer uptake"}, {"measurement": "CT scan: decrease in target lesions", "setting": "[1]; Patient 2, Week 6", "value": 13, "unit": "%"}, {"measurement": "Bone scan: radiotracer uptake", "setting": "[1]; Patient 2, Week 12", "value": "substantial reduction of radiotracer uptake"}, {"measurement": "Bone scan (best response)", "setting": "[1]; Patient 2", "value": "Improvement"}, {"measurement": "Pain (best response)", "setting": "[1]; Patient 2", "value": "Pain-free"}, {"measurement": "Bone scan: radiotracer uptake", "setting": "[1]; Patient 3, Week 6", "value": "dramatic reduction in radiotracer uptake"}, {"measurement": "CT scan: decrease in measurable target lesions", "setting": "[1]; Patient 3, Week 6", "value": 43, "unit": "%"}, {"measurement": "Bone lesions on bone scan", "setting": "[1]; Patient 3, Week 12", "value": "complete resolution of bone lesions"}, {"measurement": "Pain", "setting": "[1]; Patient 3, after three weeks", "value": "complete resolution of pain"}, {"measurement": "Bone scan (best response)", "setting": "[1]; Patient 3", "value": "Near resolution"}, {"measurement": "Pain (best response)", "setting": "[1]; Patient 3", "value": "Pain-free"}, {"measurement": "Bone pain", "setting": "[1]; all three patients, discussion", "value": "substantial reductions in bone pain"}, {"measurement": "Soft tissue lesions", "setting": "[1]; all three patients, discussion", "value": "response or stabilization"}, {"measurement": "Uptake of radiotracer on bone scan", "setting": "[1]; all three patients, discussion", "value": "striking decrease"}, {"measurement": "Bone lesions", "setting": "[1]; [4]", "value": "near complete resolution of bone lesions"}, {"measurement": "Bone pain", "setting": "[1]; [4]", "value": "marked reduction"}, {"measurement": "Measurable disease", "setting": "[1]; [4]", "value": "reduction in measurable disease"}, {"measurement": "Total serum alkaline phosphatase (tALP) levels", "setting": "[1]; [4]", "value": "marked reduction"}, {"measurement": "Most commonly observed adverse events", "setting": "[2]", "value": "fatigue, diarrhea, anorexia, rash, and palmar-plantar erythrodysesthesia"}, {"measurement": "Tolerability", "setting": "[2]", "value": "generally well-tolerated"}, {"measurement": "Apoptosis of tumor cells", "setting": "tumor cells", "value": "rapidly induces apoptosis"}, {"measurement": "Tumor regression", "setting": "xenograft tumor models", "value": "causes tumor regression"}, {"measurement": "Overall survival", "setting": "[3]", "value": "substantially improves"}, {"measurement": "Tumor invasiveness and metastasis", "setting": "[3]", "value": "significantly reduces"}, {"measurement": "Apoptosis of endothelial cells", "setting": "endothelial cells", "value": "rapidly induces apoptosis"}]}
